Assay: Stability test: storage in nitrogen-filled sealed bottles, purity test by HPLC every month
Assay type: physicochemical
Details: for purity by HPLC, Time (month) 1: 1 month; for purity by HPLC, Time (month) 2: 2 months; for purity by HPLC, Time (month) 3: 3 months; for purity by HPLC, Time (month) 4: 4 months; for purity by HPLC, Time (month) 5: 5 months; for purity by HPLC, Time (month) 6: 6 months; for Decomposition rate: over 6 months; for purity by HPLC, Time (month) 0: initial sample (0 month); for stability, molar ratio (NR to organic acid) 1:2 compared with 1:1: in words, comparison with the corresponding 1:1 product
Experimental: I. Preparation of samples
1. The products of Examples 1 to 4, Examples 10 to 13, and the comparative example were each dispensed into 13 bottles, each of 50 mg; and the bottles were filled with nitrogen and sealed. One of the bottles (initial sample) was first tested, and the remaining 12 bottles were divided into two groups (each with 6 bottles) and stored. The bottles in each group were numbered 1 to 6 according to a test sequence. The two groups of bottles were stored at 2° C. to 8° C. and −20° C., respectively; and one sample was tested every month.
2. The products of Examples 6 to 9 and Example 14 were each dispensed into 7 bottles, each of 50 mg; and the bottles were filled with nitrogen and sealed. One of the bottles (initial sample) was first tested, and the remaining 6 bottles were numbered 1 to 6 according to a test sequence and then stored at 2° C. to 8° C. One sample was tested every month.
II. Preparation of test sample solutions
One bottle of sample was taken at a time and prepared into a 5 mL or 10 mL solution using a 5 mL or 10 mL volumetric flask, and then the solution was filtered through a membrane to be ready for purity test by HPLC.
Mobile phase: isocratic elution: 5% water (0.1% formic acid)+95% methanol (0.1% formic acid)
Temperature and humidity: 23.0° C. and 54% RH
Sample dissolution: dissolution by methanol
Chromatographic column: ODS-2, 4.6 * 250 mm, 5 μm, and constant pressure: 12 Mpa to 13 Mpa
Running time: ≥15 min IV.

[1] = Table 2, stored at 2° C. to 8° C.

| Compound | purity by HPLC, Time (month) 1 (Table 1, stored at −20° C.) | purity by HPLC, Time (month) 2 (Table 1, stored at −20° C.) | purity by HPLC, Time (month) 3 (Table 1, stored at −20° C.) | purity by HPLC, Time (month) 4 (Table 1, stored at −20° C.) | purity by HPLC, Time (month) 5 (Table 1, stored at −20° C.) | purity by HPLC, Time (month) 6 (Table 1, stored at −20° C.) | Decomposition rate (Table 1, stored at −20° C.) [%] | purity by HPLC, Time (month) 0 (Table 1, −20° C.) | purity by HPLC, Time (month) 0 (Table 2, 2° C. to 8° C.) | purity by HPLC, Time (month) 1 [1] | purity by HPLC, Time (month) 2 [1] | purity by HPLC, Time (month) 3 [1] | purity by HPLC, Time (month) 4 [1] | purity by HPLC, Time (month) 5 [1] | purity by HPLC, Time (month) 6 [1] | Decomposition rate [1] [%] | stability, molar ratio (NR to organic acid) 1:2 compared with 1:1 |
| --- | --- | --- | --- | --- | --- | --- | --- | --- | --- | --- | --- | --- | --- | --- | --- | --- | --- |
| NC(=O)c1ccc[n+]([C@@H]2O[C@H](CO)[C@@H](O)[C@H]2O)c1.O=C([O-])C[C@H](O)C(=O)O [Example 3, malate of NR (1:1)] | 98.691 | 98.310 | 98.288 | 98.076 | 97.912 | 97.645 | 0.94 | 98.573 | 98.573 | 98.482 | 98.185 | 98.270 | 97.946 | 97.592 | 97.337 | 1.25 | – |
| NC(=O)c1ccc[n+]([C@@H]2O[C@H](CO)[C@@H](O)[C@H]2O)c1.O=C(O)CC(O)(CC(=O)O)C(=O)[O-] [Example 1, citrate of NR (1:1)] | 98.828 | 98.450 | 98.190 | 98.252 | 97.978 | 97.814 | 1.13 | 98.930 | 98.930 | 98.198 | 98.409 | 98.171 | 97.957 | 97.823 | 97.670 | 1.27 | – |
| NC(=O)c1ccc[n+]([C@@H]2O[C@H](CO)[C@@H](O)[C@H]2O)c1.O=C(O)CC(O)(CC(=O)O)C(=O)O.O=C(O)CC(O)(CC(=O)O)C(=O)[O-] [Example 2, citrate of NR (1:2)] | 98.317 | 98.079 | 98.168 | 97.933 | 97.806 | 97.788 | 0.69 | 98.471 | 98.471 | 98.492 | 98.240 | 98.097 | 97.626 | 97.704 | 97.498 | 0.99 | higher stability |
| NC(=O)c1ccc[n+]([C@@H]2O[C@H](CO)[C@@H](O)[C@H]2O)c1.O=C(O)C[C@H](O)C(=O)O.O=C([O-])C[C@H](O)C(=O)O [Example 4, malate of NR (1:2)] | 98.547 | 98.629 | 98.316 | 98.207 | 98.081 | 98.100 | 0.73 | 98.818 | 98.818 | 98.424 | 98.360 | 98.298 | 98.239 | 97.707 | 97.816 | 1.01 | higher stability |
| NC(=O)c1ccc[n+]([C@@H]2O[C@H](CO)[C@@H](O)[C@H]2O)c1.[Cl-] [Comparative Example, chlorine salt of NR, reference compound] | 98.284 | 98.087 | 97.701 | 97.449 | 97.575 | 97.210 | 1.33 | 98.525 | 98.525 | 98.171 | 98.206 | 97.540 | 97.612 | 97.384 | 97.109 | 1.44 | – |
